Source: US10670605B2, “Cysteine reactive probes and uses thereof” (The Scripps Research Institute, priority 2015, dated 2020)

Tests used:
Experiment in all cases: Competitive isoTOP-ABPP in situ (fragment-treated cells)
Type in all cases: cell-based
[1] = molecular target: T1, cysteines in MDA-MB-231 and Ramos cells (Homo sapiens, UniProt P23919)
T1 sequence (P23919 1-212): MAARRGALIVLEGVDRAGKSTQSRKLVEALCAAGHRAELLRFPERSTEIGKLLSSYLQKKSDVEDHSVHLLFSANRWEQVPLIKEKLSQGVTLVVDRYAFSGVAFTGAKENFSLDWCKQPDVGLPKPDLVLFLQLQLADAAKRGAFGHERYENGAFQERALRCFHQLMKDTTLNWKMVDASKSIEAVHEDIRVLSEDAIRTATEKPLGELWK

[2] = molecular target: T2, cysteines in MDA-MB-231 and Ramos cells (Homo sapiens, UniProt P22307)
T2 sequence (P22307 1-547): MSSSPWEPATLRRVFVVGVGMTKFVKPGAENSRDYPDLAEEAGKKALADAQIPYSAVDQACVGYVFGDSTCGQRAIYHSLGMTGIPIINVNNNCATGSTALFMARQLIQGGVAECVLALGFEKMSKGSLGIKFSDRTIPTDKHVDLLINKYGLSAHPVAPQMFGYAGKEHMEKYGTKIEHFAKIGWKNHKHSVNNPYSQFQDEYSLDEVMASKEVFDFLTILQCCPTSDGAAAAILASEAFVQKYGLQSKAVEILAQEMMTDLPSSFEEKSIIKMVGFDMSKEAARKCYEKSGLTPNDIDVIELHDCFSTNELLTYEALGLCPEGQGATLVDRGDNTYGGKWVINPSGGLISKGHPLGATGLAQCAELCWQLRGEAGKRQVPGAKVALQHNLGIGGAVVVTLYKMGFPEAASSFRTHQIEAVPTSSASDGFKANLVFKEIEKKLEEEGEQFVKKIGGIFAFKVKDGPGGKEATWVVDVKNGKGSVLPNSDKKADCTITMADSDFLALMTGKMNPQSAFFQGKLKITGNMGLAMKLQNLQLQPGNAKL

[3] = molecular target: T3, cysteines in MDA-MB-231 and Ramos cells (Homo sapiens, UniProt Q09161)
T3 sequence (Q09161 1-790): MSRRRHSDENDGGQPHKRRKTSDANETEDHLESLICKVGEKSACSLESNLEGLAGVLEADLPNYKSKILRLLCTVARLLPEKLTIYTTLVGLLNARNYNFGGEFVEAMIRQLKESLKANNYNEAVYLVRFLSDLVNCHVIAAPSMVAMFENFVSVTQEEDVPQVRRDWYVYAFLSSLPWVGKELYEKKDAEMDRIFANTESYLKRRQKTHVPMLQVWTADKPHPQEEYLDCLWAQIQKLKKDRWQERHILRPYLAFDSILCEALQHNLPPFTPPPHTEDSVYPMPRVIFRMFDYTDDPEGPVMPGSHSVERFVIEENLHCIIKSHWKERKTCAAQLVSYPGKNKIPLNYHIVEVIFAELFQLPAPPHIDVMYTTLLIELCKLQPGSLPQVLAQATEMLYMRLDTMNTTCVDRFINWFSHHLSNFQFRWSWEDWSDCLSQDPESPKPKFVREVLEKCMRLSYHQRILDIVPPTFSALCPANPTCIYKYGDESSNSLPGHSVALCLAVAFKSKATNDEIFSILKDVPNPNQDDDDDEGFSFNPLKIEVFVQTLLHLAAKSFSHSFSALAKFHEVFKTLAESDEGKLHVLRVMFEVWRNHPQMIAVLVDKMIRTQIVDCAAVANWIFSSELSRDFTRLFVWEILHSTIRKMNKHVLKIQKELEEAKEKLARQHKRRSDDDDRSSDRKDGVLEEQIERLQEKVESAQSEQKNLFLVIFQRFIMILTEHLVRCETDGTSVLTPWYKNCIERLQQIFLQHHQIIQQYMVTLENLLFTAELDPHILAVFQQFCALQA

[4] = molecular target: T4, cysteines in MDA-MB-231 and Ramos cells (Homo sapiens, UniProt Q9NS86)
T4 sequence (Q9NS86 1-450): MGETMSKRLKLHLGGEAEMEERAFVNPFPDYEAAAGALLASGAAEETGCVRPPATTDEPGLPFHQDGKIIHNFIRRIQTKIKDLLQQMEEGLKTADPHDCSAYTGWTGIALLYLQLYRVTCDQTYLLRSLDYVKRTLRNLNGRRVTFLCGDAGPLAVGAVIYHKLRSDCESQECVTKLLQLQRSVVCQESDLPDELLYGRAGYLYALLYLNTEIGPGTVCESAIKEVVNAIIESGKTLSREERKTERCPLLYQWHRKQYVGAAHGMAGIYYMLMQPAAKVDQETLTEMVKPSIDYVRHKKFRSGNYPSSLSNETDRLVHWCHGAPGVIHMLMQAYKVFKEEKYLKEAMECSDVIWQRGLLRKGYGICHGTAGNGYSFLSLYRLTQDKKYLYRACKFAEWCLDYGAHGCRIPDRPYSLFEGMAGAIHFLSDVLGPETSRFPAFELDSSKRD

[5] = molecular target: T5, cysteines in MDA-MB-231 and Ramos cells (Homo sapiens, UniProt P42765); conditions: 200 μM, insitu
T5 sequence (P42765 1-397): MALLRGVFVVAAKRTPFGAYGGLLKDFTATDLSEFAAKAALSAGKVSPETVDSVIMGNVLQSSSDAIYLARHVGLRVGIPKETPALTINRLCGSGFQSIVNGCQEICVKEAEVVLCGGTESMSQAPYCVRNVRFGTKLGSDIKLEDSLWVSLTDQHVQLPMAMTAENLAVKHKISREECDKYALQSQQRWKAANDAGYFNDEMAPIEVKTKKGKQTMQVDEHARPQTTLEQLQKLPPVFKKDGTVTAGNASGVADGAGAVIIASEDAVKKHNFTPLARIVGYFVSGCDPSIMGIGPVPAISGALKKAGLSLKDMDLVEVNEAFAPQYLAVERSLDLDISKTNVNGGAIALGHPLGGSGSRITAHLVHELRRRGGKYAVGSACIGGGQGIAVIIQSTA

How did the “isoTOP-ABPP ratio, cysteine P23919_C163” value ([1]; 100 μM in situ 231) turn out when `Cn1cc(S(=O)(=O)N2CCOCC2)cc1C(=O)NC(=O)CCl` [compound 11] was run?
Its value is 0.2.

What about the “isoTOP-ABPP ratio P22307_C71” value ([2]; 100 μM in situ 231) of the same molecule?
The value was 2.0.

And the “isoTOP-ABPP ratio, cysteine P22307_C94” value ([2]; 100 μM in situ 231)?
Its value is 3.3.

And the “isoTOP-ABPP ratio, cysteine P22307_C307” value ([2]; 100 μM in situ 231)?
The value was 2.9.

What about the “isoTOP-ABPP ratio Q09161_C44” value ([3]; 100 μM in situ 231) of the same molecule?
Its value is 1.1.

What about the “isoTOP-ABPP ratio Q9NS86_C187” value ([4]; 100 μM in situ 231) of the same molecule?
The value was 0.8.

Which results are given for `C=CC(=O)Nc1cc(F)c(N2CCN(C(=O)OC(C)(C)C)CC2)c(F)c1` [compound 38]?
isoTOP-ABPP ratio P23919_C117 ([1]; 200 μM, insitu, 231): 4.4; isoTOP-ABPP ratio P23919_C163 ([1]; 200 μM, insitu, 231): 5.7; isoTOP-ABPP ratio Q09161_C44 ([3]; 200 μM, insitu, 231): 1.2; isoTOP-ABPP ratio Q9NS86_C187 ([4]; 200 μM, insitu, 231): 2.0; isoTOP-ABPP ratio P42765_C92 [5]; 231: 0.9

With `CC1CCc2ccccc2N1C(=O)CCl` (centres unmarked) [compound 45] as the molecule, how does the “isoTOP-ABPP ratio P22307_C71” value ([2]; 200 μM, insitu, 231) read?
Its value is 16.8.

What about the “isoTOP-ABPP ratio P22307_C94” value ([2]; 200 μM, insitu, 231) of the same molecule?
Its value is 20.0.

What about the “isoTOP-ABPP ratio Q09161_C44” value ([3]; 200 μM, insitu, 231) of the same molecule?
Its value is 2.5.

And the “isoTOP-ABPP ratio Q9NS86_C187” value ([4]; 200 μM, insitu, 231)?
Its value is 3.1.

What about the “isoTOP-ABPP ratio P42765_C92” value [5]; 231 of the same molecule?
The value was 15.1.

How did the “isoTOP-ABPP reactivity P22307_C71 SCP2” value ([2]; 200 μM, insitu, 231) turn out when `COc1ccc2c(c1)CCCN2C(=O)CCl` [compound 2] was run?
The value was 3.2.

What about the “isoTOP-ABPP reactivity P22307_C307 SCP2” value ([2]; 200 μM, insitu, 231) of the same molecule?
The value was 20.0.

What about the “isoTOP-ABPP reactivity Q09161_C44 NCBP1” value ([3]; 200 μM, insitu, 231) of the same molecule?
The value was 2.1.

And the “isoTOP-ABPP reactivity P42765_C92 ACAA2” value [5]; 231?
Its value is 20.0.

With `COc1cc2c(cc1OC)CN(C(=O)CCl)CC2` [compound 8] as the molecule, how does the “isoTOP-ABPP reactivity P23919_C117 DTYMK” value ([1]; 200 μM, insitu, 231) read?
Its value is 0.4.

What about the “isoTOP-ABPP reactivity P23919_C163 DTYMK” value ([1]; 200 μM, insitu, 231) of the same molecule?
Its value is 0.6.

What about the “isoTOP-ABPP reactivity P22307_C71 SCP2” value ([2]; 200 μM, insitu, 231) of the same molecule?
Its value is 20.0.

What about the “isoTOP-ABPP reactivity P22307_C307 SCP2” value ([2]; 200 μM, insitu, 231) of the same molecule?
The value was 20.0.

And the “isoTOP-ABPP reactivity Q09161_C44 NCBP1” value ([3]; 200 μM, insitu, 231)?
The value was 2.0.

And the “isoTOP-ABPP reactivity Q9NS86_C187 LANCL2” value ([4]; 200 μM, insitu, 231)?
The value was 6.1.

And the “isoTOP-ABPP reactivity P42765_C92 ACAA2” value [5]; 231?
The value was 20.0.

What does the source list for `CC(C)CCOCCNC(=O)CCl` [compound 27]?
isoTOP-ABPP ratio P23919_C163 ([1]; 200 μM, insitu, 231): 0.2; isoTOP-ABPP ratio P22307_C71 ([2]; 200 μM, insitu, 231): 20.0; isoTOP-ABPP ratio Q09161_C44 ([3]; 200 μM, insitu, 231): 0.8; isoTOP-ABPP ratio Q9NS86_C187 ([4]; 200 μM, insitu, 231): 0.4; isoTOP-ABPP ratio P42765_C92 [5]; 231: 1.2

For `O=C(CCl)N1CCN(S(=O)(=O)c2ccccc2F)CC1` [compound 10], which “isoTOP-ABPP ratio, cysteine P23919_C117” value ([1]; 200 μM, insitu, 231) is on record?
Its value is 0.4.

What about the “isoTOP-ABPP ratio P22307_C71” value ([2]; 200 μM, insitu, 231) of the same molecule?
Its value is 8.3.

What about the “isoTOP-ABPP ratio Q09161_C44” value ([3]; 200 μM, insitu, 231) of the same molecule?
Its value is 12.4.

And the “isoTOP-ABPP ratio Q9NS86_C187” value ([4]; 200 μM, insitu, 231)?
The value was 6.3.

What about the “isoTOP-ABPP ratio P42765_C92” value [5]; 231 of the same molecule?
The value was 3.7.

What about the “isoTOP-ABPP ratio P42765_C92” value ([5]; ramos) of the same molecule?
Its value is 1.1.

For `O=C(CCl)N1CCN(CC(=O)N2CCOCC2)CC1` [compound 29], which “isoTOP-ABPP ratio P23919_C117” value ([1]; 200 μM, insitu, ramos) is on record?
Its value is 1.6.

And the “isoTOP-ABPP ratio Q09161_C44” value ([3]; 200 μM, insitu, ramos)?
Its value is 1.1.

And the “isoTOP-ABPP ratio Q9NS86_C187” value ([4]; 200 μM, insitu, ramos)?
The value was 1.7.

What about the “isoTOP-ABPP ratio P42765_C92” value ([5]; ramos) of the same molecule?
Its value is 0.9.

What does the source list for `C=CC(=O)N(Cc1cccnc1)c1cc(C(F)(F)F)cc(C(F)(F)F)c1` [compound 31]?
isoTOP-ABPP ratio P23919_C163 ([1]; 200 μM, insitu, ramos): 1.0; isoTOP-ABPP ratio Q09161_C44 ([3]; 200 μM, insitu, 231): 0.6; isoTOP-ABPP ratio Q9NS86_C187 ([4]; 200 μM, insitu, 231): 0.5; isoTOP-ABPP ratio P42765_C92 [5]; 231: 0.8; isoTOP-ABPP ratio P42765_C92 ([5]; ramos): 1.2
